Laboratory results taken from patent US20110086837A1, “COMBINATIONS OF A PI3K INHIBITOR AND A MEK INHIBITOR” (Genentech, Inc., priority 2009, published 2011).

What was measured:
MOLM-16 (AML) tumors = assay: MOLM-16 xenograft model, tumor growth inhibition; type: in vivo, nude mice (nu/nu)
Experimental: (A) Treatment was then begun dosing Vehicle (open circles)), GDC-0941 (100 mg/kg, QD, PO; filled triangles), GDC-973 (10 mg/kg, QD, PO; filled squares), or the combination of GDC-0941 and GDC-0973 (filled diamonds, solid lines, n=7). […] Treatment was then begun dosing Vehicle (open circles,), GDC-0941 (100 mg/kg, QD, PO; filled triangles), GDC-0973 (5 mg/kg, QD, PO; filled squares), or the combination of GDC-0941 and GDC-0973 (filled diamonds). Caliper measurements of animals' tumors and animal weights were taken every 3-4 days throughout the study and tumor volumes were calculated (TV=[L×(W^2)]/2) and plotted +/−SEM. Percent tumor growth inhibition was calculated by calculating the area under the curve (AUC) of each treatment group relative to vehicle control. Student's t-tests were performed on day 21 data to determine significance by p-value.
MOLM-16 (AML) tumor-bearing animals were treated with either single agent GDC-0973 (10 mg/kg, daily) or GDC-0941 (100 mg/kg, daily) or the combination of the two.

[1] = tested on: A2058 (Melanoma, BRAF V600E, PTEN null) tumors; assay: A2058 xenograft model, tumor growth inhibition; type: in vivo, nude mice (nu/nu); details: for sensitivity as single agent: A2058 xenograft, tumor growth delay, but not stasis or regression
Experimental: A2058 tumor-bearing animals were tested with both moderate and high doses of GDC-0973 (6 and 10 mg/kg, daily) and GDC-0941 (30 and 100 mg/kg, daily) as well as combinations of the lower and higher doses. […] Likewise, A2058 tumors are also moderately sensitive to single agent GDC-0941 with TGIs of 18% at 30 mg/kg and 56% at 100 mg/kg (FIGS. 3A and B, respectively).

SKOV-3 (Ovarian) tumors = assay: SKOV-3 xenograft model, tumor growth inhibition; type: in vivo; details: GDC-0941 single agent, 100 mg/kg daily
Experimental: (B) the […] (ovarian) Xenograph model.
SKOV-3 (Ovarian) tumor-bearing animals were treated with either single agent GDC-0973 (10 mg/kg, daily) or GDC-0941 (100 mg/kg, daily) or the combination of the two. […] The improved efficacy of the combination was statistically significant versus single agent GDC-0973 and GDC-0941 (p=0.0017 and p=0.0283, respectively, on Day 22).

[2] = tested on: NCI-H2122 (NSCLC, KRAS G12C, PI3K/PTEN WT) tumors; assay: NCI-H2122 xenograft model, tumor growth inhibition; details: for sensitivity as single agent: NCI-H2122 xenograft, tumor growth delay, but not stasis or regression
Experimental: NCI-H2122 cells (10×10^6 in Hanks Balance Salt Solution (HBSS)+Matrigel) were inoculated into nude mice (nu/nu) and tumors were allowed to establish to an average volume of ˜240 mm^3. […] Caliper measurements of animals' tumors and animal weights were taken every 3-4 days throughout the study and tumor volumes were calculated (TV=[L×(W^2)]/2) and plotted +/−SEM. Percent tumor growth inhibition was calculated by calculating the area under the curve (AUC) of each treatment group relative to vehicle control. Student's t-tests were performed on day 21 data to determine significance by p-value.
GDC-0973 and GDC-0941 were used as therapeutic agents in the NCI-H2122 (NSCLC, KRAS^G12C, PI3K/PTEN WT) and A2058 (Melanoma, BRAF^V600E, PTEN^null) xenograft models. […]

FaDu (HNSCC) tumors = assay: FaDu xenograft model, tumor growth inhibition; type: in vivo
Experimental: (A) Treatment was then begun dosing Vehicle (open circles)), GDC-0941 (100 mg/kg, QD, PO; filled triangles), GDC-973 (5 mg/kg, QD, PO; filled squares), or the combination of GDC-0941 and GDC-0973 (filled diamonds, solid lines, n=7). (B) the SKOV-4 (ovarian) Xenograph model. Treatment was then begun dosing Vehicle (open circles,), GDC-0941 (100 mg/kg, QD, PO; filled triangles), GDC-0973 (10 mg/kg, QD, PO; filled squares), or the combination of GDC-0941 and GDC-0973 (filled diamonds). Caliper measurements of animals' tumors and animal weights were taken every 3-4 days throughout the study and tumor volumes were calculated (TV=[L×(W^2)]/2) and plotted +/−SEM. Percent tumor growth inhibition was calculated by calculating the area under the curve (AUC) of each treatment group relative to vehicle control. Student's t-tests were performed on day 21 data to determine significance by p-value.
FaDu (HNSCC) tumor-bearing animals were treated with either single agent GDC-0973 (5 mg/kg, daily) or GDC-0941 (100 mg/kg, daily) or the combination of the two.

[3] = GDC-0941 single agent, 100 mg/kg daily
[4] = GDC-0973 single agent, 10 mg/kg daily

Compound | percent tumor growth inhibition (% TGI) (MOLM-16 (AML) tumors; [3]) [%] | sensitivity as single agent [1] | TGI ([1]; GDC-0941 single agent, 30 mg/kg daily) [%] | TGI [1, 3] [%] | % TGI (SKOV-3 (Ovarian) tumors) [%] | tumor growth inhibition (TGI, relative to vehicle control) ([2]; GDC-0941 single agent, 30 mg/kg arm (so in the source)) [%] | sensitivity as single agent [2] | percent tumor growth inhibition (% TGI) (FaDu (HNSCC) tumors; [3]) [%] | percent tumor growth inhibition (% TGI) (MOLM-16 (AML) tumors; [4]) [%] | TGI ([1]; GDC-0973 single agent, 6 mg/kg daily) [%] | TGI [1, 4] [%] | tumor growth inhibition (TGI, relative to vehicle control) ([2]; GDC-0973 single agent, 5 mg/kg QD arm) [%] | percent tumor growth inhibition (% TGI) (FaDu (HNSCC) tumors; GDC-0973 single agent, 5 mg/kg daily) [%]
CS(=O)(=O)N1CCN(Cc2cc3nc(-c4cccc5[nH]ncc45)nc(N4CCOCC4)c3s2)CC1 [GDC-0941, 4-(2-(1H-indazol-4-yl)-6-((4-(methylsulfonyl)piperazin-1-yl)methyl)thieno[3,2-d]pyrimidin-4-yl)morpholine] | 40 | moderate sensitivity | 18 | 56 | 51 | 73 | moderate sensitivity | 33 |  |  |  |  | 
O=C(c1ccc(F)c(F)c1Nc1ccc(I)cc1F)N1CC(O)([C@@H]2CCCCN2)C1 [GDC-0973, [3,4-Difluoro-2-(2-fluoro-4-iodo-phenylamino)-phenyl]-((S)-3-hydroxy-3-piperidin-2-yl-azetidin-1-yl)-methanone] |  | moderate sensitivity |  |  |  |  | moderate sensitivity |  | 57 | 41 | 62 | 57 | 41
